Assay results from patent publication US11760984B2, “CRISPR protein inhibitors” (THE BROAD INSTITUTE, INC., priority 2017, dated 2023).

Tests used:
[1] = tested on: U2OS.eGFP.PEST cells; experiment: Cell viability assay (ATP content), U2OS.eGFP.PEST cells; type: cell-based, human; settings: up to 20 μM, 24 h
Description: FIG. 22—Cell viability assay (ATP content) of U2OS.eGFP.PEST cells in the presence of compounds. Measurement ATP content of U2OS.eGFP.PEST cells upon incubating with BRD7087 and BRD5779 (5-20 μM) for 24 h. Error bars represent ±S.D. from technical replicates (n=3).
FIG. 66. Cell viability assay (ATP content) of U2OS.eGFP.PEST cells in the presence of compounds. Measurement of ATP content of U2OS.eGFP.PEST cells upon incubating with BRD7087 and BRD5779 (5-20 μM) for 24 h. Error bars represent ±S.D. from technical replicates (n=3).

[2] = biological target: SpCas9 (Streptococcus pyogenes serotype M1, UniProt Q99ZW2); experiment: Cas9 nuclease activity in EGFP disruption assay (U2OS.eGFP.PEST cells); type: cell-based; design: host or cells: U2OS.eGFP-PEST; settings: 10 μM
Description: (§1) Cas9 Nuclease activity in EGFP disruption assay. Approximately 200,000 U2OS.eGFP-PEST cells were nucleofected with 400 ng of SpCas9 (Addgene Plasmid #43861) and 40 ng of sgRNA (pFYF1320 EGFP Site #1, Addgene Plasmid #47511) expressing plasmids along with a Td-tomato-encoding plasmid using the SE Cell Line 4D-Nucleofector™ X Kit (Lonza) according to the manufacturer's protocol. Approximately 20,000 transfected cells/well in 3 replicates were plated in a 96-well plate (Corning® 3904). Cells were allowed to grow in the indicated amount of compound or DMSO for 24 h post transfection. Cells were then fixed using 4% paraformaldehyde and imaged with the HCS NuclearMask™ Blue Stain (Life Technologies) as the nuclear counter-staining agent. Imaging was performed with an IXM 137204 ImageXpress Automated High Content Microscope (Molecular Devices) at 10× magnification under three excitation channels (blue, green and red) with 9 acquiring sites per well. Images were analyzed in the MetaXpress software and data were plotted using GraphPad Prism 6. The Z′-value was calculated following the formula: […]
Cas9 Nuclease activity in EGFP disruption assay. In some embodiments, a quantitative human cell-based reporter assay that enables rapid quantitation of targeted nuclease activities is used to characterize off-target cleavage of CRISPR protein-based RNA guided endonucleases. In this assay, the activities of nucleases targeted to a single integrated EGFP reporter gene can be quantified by assessing loss of fluorescence signal in human U2OS.EGFP cells caused by inactivating frameshift insertion/deletion (indel) mutations introduced by error prone non-homologous end-joining (NHEJ) repair of nuclease-induced double-stranded breaks (DSBs).
as §1, with “Approximately” for “Cas9 Nuclease activity in EGFP disruption assay. Approximately”

[3] = biological target: T1, SpCas9:gRNA complex (Streptococcus pyogenes serotype M1, UniProt Q99ZW2); experiment: 19F NMR binding assay; settings: for Fractional Occupancy (1-Ibound/I0) / LW (linewidth of 19F signal): [Ligand] 50 μM
T1 construct: His6 (N, cleaved yes); made in house; host or cells: E. coli BL21 Star (DE3)
Description: (§2) NMR binding assay. All samples were prepared with 50 μM BRD7087 in 20 mM Tris buffer (pH=7.4) with varying concentrations of SpCas9:gRNA in a 3 mm NMR tube. Experiments were performed on a 600 MHz (19F: 564.71 MHz) Bruker Avance III NMR spectrometer equipped with a 5 mm QCI-F CryoProbe and a SampleJet for automated sample handling. To acquire spectra, a standard one-pulse 19F experiment with WALTZ-16 for proton decoupling during acquisition, a 5 second recycle delay, and 256 scans was used. All spectra were recorded at 280 K. NMR data were apodized with a 1 Hz exponential function prior to Fourier transformation. All spectra were baseline corrected; peak widths and intensities were extracted using the automated line-fitting feature provided with the MNova software package. Determination of the value of Kd was accomplished using least squares fitting to the expression given in Equation 8 in the paper by Shortridge et al.2.
Kd values obtained by NMR rely on the assumption that ligand binding is in fast-exchange, which typically holds true for ligands with Kd in the 0.5 μM to 20 mM range.
as §2, with “(^19F:” for “(19F:”, “^19F” for “19F”, “al.^2.” for “al.2.”

T1 sequence (Q99ZW2 whole entry, one chain of several): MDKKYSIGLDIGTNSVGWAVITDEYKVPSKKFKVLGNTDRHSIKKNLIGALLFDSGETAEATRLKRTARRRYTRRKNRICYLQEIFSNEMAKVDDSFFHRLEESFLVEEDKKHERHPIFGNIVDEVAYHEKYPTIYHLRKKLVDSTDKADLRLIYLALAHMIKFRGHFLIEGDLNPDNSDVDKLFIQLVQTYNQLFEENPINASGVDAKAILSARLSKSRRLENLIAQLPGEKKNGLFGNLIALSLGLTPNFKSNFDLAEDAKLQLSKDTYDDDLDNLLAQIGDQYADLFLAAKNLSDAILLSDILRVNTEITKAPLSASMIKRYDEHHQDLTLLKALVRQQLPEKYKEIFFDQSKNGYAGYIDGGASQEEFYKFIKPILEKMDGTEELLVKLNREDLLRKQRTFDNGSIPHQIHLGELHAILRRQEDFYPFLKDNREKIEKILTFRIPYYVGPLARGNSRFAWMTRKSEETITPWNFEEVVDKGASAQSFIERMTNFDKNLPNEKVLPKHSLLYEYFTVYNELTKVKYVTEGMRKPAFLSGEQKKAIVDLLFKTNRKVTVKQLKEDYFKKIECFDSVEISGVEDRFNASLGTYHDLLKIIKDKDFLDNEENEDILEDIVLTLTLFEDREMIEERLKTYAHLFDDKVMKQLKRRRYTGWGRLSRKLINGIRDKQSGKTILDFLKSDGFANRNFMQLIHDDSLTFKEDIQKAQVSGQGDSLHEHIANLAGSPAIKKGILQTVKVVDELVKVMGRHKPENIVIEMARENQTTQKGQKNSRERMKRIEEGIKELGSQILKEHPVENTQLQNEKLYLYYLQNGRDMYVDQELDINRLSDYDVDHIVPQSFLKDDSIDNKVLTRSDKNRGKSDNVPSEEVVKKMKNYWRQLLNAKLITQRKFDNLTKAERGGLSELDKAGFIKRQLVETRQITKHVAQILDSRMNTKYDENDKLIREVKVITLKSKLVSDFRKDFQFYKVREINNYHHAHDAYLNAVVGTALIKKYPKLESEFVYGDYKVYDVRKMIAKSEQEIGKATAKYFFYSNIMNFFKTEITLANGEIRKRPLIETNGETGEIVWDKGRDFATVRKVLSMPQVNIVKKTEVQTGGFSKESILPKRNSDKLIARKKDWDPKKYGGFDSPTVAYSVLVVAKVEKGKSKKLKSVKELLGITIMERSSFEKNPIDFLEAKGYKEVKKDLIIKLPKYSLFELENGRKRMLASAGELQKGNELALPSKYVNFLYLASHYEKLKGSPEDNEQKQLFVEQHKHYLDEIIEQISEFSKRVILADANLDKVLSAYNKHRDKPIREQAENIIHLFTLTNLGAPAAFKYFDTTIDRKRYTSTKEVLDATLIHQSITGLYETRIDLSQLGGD
Sequence of SpCas9 (Q99ZW2 whole entry): as the sequence (Q99ZW2 whole entry, one chain of several) above

SMILES	cytotoxicity: cellular ATP-levels [1]	inhibition at 10 µM [2] [%]	inhibition of SpCas9 activity [2] [%]	Kd ([3]; 50 μM ligand, 20 mM Tris pH 7.4, 280 K, read-out: binding constant Kd (method of Shortridge et al., peak intensities)) [nM]	binding by differential line broadening of 19F signal ([3]; 50 μM ligand, broadening from 0.75 μM SpCas9:gRNA)	Fractional Occupancy (1-Ibound/I0) ([3]; [Protein:gRNA] 0.75 μM)	LW (linewidth of 19F signal) ([3]; [Protein:gRNA] 0.75 μM) [Hz]	Fractional Occupancy (1-Ibound/I0) ([3]; [Protein:gRNA] 1.0 μM)	LW (linewidth of 19F signal) ([3]; [Protein:gRNA] 1.0 μM) [Hz]	Fractional Occupancy (1-Ibound/I0) ([3]; [Protein:gRNA] 1.25 μM)	LW (linewidth of 19F signal) ([3]; [Protein:gRNA] 1.25 μM) [Hz]	Fractional Occupancy (1-Ibound/I0) ([3]; [Protein:gRNA] 1.5 μM)	LW (linewidth of 19F signal) ([3]; [Protein:gRNA] 1.5 μM) [Hz]	Fractional Occupancy (1-Ibound/I0) ([3]; [Protein:gRNA] 1.75 μM)	LW (linewidth of 19F signal) ([3]; [Protein:gRNA] 1.75 μM) [Hz]
COc1ccc(-c2ccc3c(c2)[C@H]2[C@H](CCN2Cc2ccncc2)[C@@H](CO)N3)cc1 [BRD5779, ((3aR,4S,9bR)-8-(4-Methoxyphenyl)-1-(pyridin-4-ylmethyl)-2,3,3a,4,5,9b-hexahydro-1H-pyrrolo[3,2-c]quinolin-4-yl)methanol]	did not significantly alter the cellular ATP-levels														
OC[C@H]1Nc2ccc(-c3cccc(F)c3)cc2[C@H]2[C@@H]1CCN2Cc1ccncc1 [BRD7087, ((3aR,4S,9bR)-8-(3-Fluorophenyl)-1-(pyridin-4-ylmethyl)-2,3,3a,4,5,9b-hexahydro-1H-pyrrolo[3,2-c]quinolin-4-yl)methanol]	did not significantly alter the cellular ATP-levels	44	44	~2200	relatively tight binding	0.1307	4.3	0.1817	4.6	0.3042	5.3	0.3436	5.9	0.4015	6.3
